# According to patent publication US6372297B1, “Wood preservative oxathiazines” (Uniroyal Chemical Company, Inc., priority 1993, dated 2002):
# Assays:
# [1] = tested on: mixed spore suspension of blue-stain fungus and molds; test: Activity against blue-stain fungi and molds in a mold cabinet test (BS3900: Part G6)
# Protocol: Using the methods described in BS3900: Part G6: 1989, British Standard Methods of test for paints, “Assessment of resistance to fungal growth”, representative compounds of this invention were tested for activity against blue-stain fungus and molds in a mold cabinet test. In brief, sticks of Scots pine (Pinus sylvestris) measuring 75×100×10 mm, were painted, allowed to dry, and sterilized by […] (1.2 mRad). […] The sticks were then with each solution. The inoculation consisted of dipping the sticks in a mixed spore suspension, then placing them in a mold chamber and incubating them for 12 weeks. The surfaces were evaluated according the following score system: 0: No growth 1: […] 2: […] 3: […] 4. […] 5. Growth covering more than 70% of the inoculated test area.
# [2] = tested on: blue-stain fungi and molds; test: Activity against blue-stain fungi and molds on a stick test on vermiculite (paint film); design: key to Surface score of wooden sticks treated with paint formulation, C. cladosporioides / Surface score of wooden sticks treated with paint formulation, P. purpurogenum / Surface score of wooden sticks treated with paint formulation, P. violacea / Surface score of wooden sticks treated with paint formulation, R rubra (y) / Surface score of wooden sticks treated with paint formulation, S. chartarum / Surface score of wooden sticks treated with paint formulation, A. versicolor / Surface score of wooden sticks treated with paint formulation, A. pullulans: 0: No growth; Trace of growth of up to 1% coverage of the test inoculated area; 2: Growth covering between 1 and 10% of the inoculated test area; Growth covering between 10 and 30% of the inoculated test area; 4: Growth covering between 30 and 70% of the inoculated test area; 5: Growth covering more than 70t of the inoculated test area; conditions: 12 weeks on vermiculite; for Surface score of wooden sticks treated with paint formulation, R rubra (y): R rubra (yeast)
# Protocol: Beech sticks (73×18×2 mm) Fagus sylvatica were painted, allowed to dry, and sterilized by γ-radiation (1.2 mRad). […] The coated sticks prepared above were then dipped in a spore suspension of pure culture of each fungus. Seven sticks each were placed in autoclaved Petri dishes (200 mm in diameter, 30 mm in height) containing 300 ml of vermiculite and 120 ml of water, and incubated for 12 weeks. The surfaces of the sticks were then examined for the growth of fungus and were evaluated according to the following scoring system: 0: No growth 1: […] 2: […] 3: […] 4. […] 5. Growth covering more than 70t of the inoculated test area.
# [3] = tested on: mixed spore suspension: Aureobasidium pullulans, Aspergillus amstelodami, Ceratocystis pilifera, Cladosporium sp., Penicillium sp., Sclerophomas entoxylina …; test: Control of molds and sapstain fungi in mini-board test
# Excerpt: Representative compounds of this invention to be tested, were suspended in an aqueous solution containing 7.5% GENAPOL X 080™ (Hoechst-Celanese Corporation), and 20% propylene glycol monomethyl ether, to prepare the test solutions. […]
# Deep frozen boards (300×50×10 mm) of freshly felled sapwood of Pinus sylvestrus (mini-boards) were thawed at room temperature. One half of each mini-board was immersed in a test solution for 20 seconds. The mini-boards were then sprayed with mixed spore suspension containing the following fungi:
# Sclerophomas entoxylina, and
# and stored in incubation boxes at 25° C. and at 100% relative humidity, for three weeks. For each compound tested, each concentration of test solution was applied to five different mini-boards.
# The efficacy of the test compounds was determined by comparing the fungal growth on both the treated and untreated parts of the mini-boards.
# The degree of infection was scored according to the following scale:
# 1=Traces of fungal growth
# 4=Vigorous to maximum growth (all surfaces covered with fungal growth)
smiles,measurement,setting,value
O=S1(=O)CCON=C1c1ccc(Br)s1 [Compound 38],"Surface score in a paint formulation in a mold cabinet test, 6 weeks",[1]; 0.15% in water-based paint,2.5
same,"Surface score in a paint formulation in a mold cabinet test, 12 weeks",[1]; 0.15% in water-based paint,4.5
same,"Surface score in a paint formulation in a mold cabinet test, 6 weeks",[1]; 0.3% in water-based paint,2.5
same,"Surface score in a paint formulation in a mold cabinet test, 12 weeks",[1]; 0.3% in water-based paint,4.0
same,"Surface score of wooden sticks treated with paint formulation, A. pullulans",[2]; 0.15% a.i. in paint,2 (Growth covering between 1 and 10% of the inoculated test area)
same,"Surface score of wooden sticks treated with paint formulation, A. pullulans",[2]; 0.3% a.i. in paint,0
same,"Surface score of wooden sticks treated with paint formulation, A. versicolor",[2]; 0.15% a.i. in paint,1 (Trace of growth of up to 1% coverage of the test inoculated area)
same,"Surface score of wooden sticks treated with paint formulation, A. versicolor",[2]; 0.3% a.i. in paint,0
same,"Surface score of wooden sticks treated with paint formulation, C. cladosporioides",[2]; 0.15% a.i. in paint,2 (Growth covering between 1 and 10% of the inoculated test area)
same,"Surface score of wooden sticks treated with paint formulation, C. cladosporioides",[2]; 0.3% a.i. in paint,0
same,"Surface score of wooden sticks treated with paint formulation, P. purpurogenum",[2]; 0.15% a.i. in paint,3 (Growth covering between 10 and 30% of the inoculated test area)
same,"Surface score of wooden sticks treated with paint formulation, P. purpurogenum",[2]; 0.3% a.i. in paint,3 (Growth covering between 10 and 30% of the inoculated test area)
same,"Surface score of wooden sticks treated with paint formulation, P. violacea",[2]; 0.15% a.i. in paint,4 (Growth covering between 30 and 70% of the inoculated test area)
same,"Surface score of wooden sticks treated with paint formulation, P. violacea",[2]; 0.3% a.i. in paint,4 (Growth covering between 30 and 70% of the inoculated test area)
same,"Surface score of wooden sticks treated with paint formulation, R rubra (y)",[2]; 0.15% a.i. in paint,3 (Growth covering between 10 and 30% of the inoculated test area)
same,"Surface score of wooden sticks treated with paint formulation, R rubra (y)",[2]; 0.3% a.i. in paint,0
same,"Surface score of wooden sticks treated with paint formulation, S. chartarum",[2]; 0.15% a.i. in paint,5 (Growth covering more than 70t of the inoculated test area)
same,"Surface score of wooden sticks treated with paint formulation, S. chartarum",[2]; 0.3% a.i. in paint,2 (Growth covering between 1 and 10% of the inoculated test area)
same,"Surface score of wooden sticks treated with paint formulation, U. atrum",[2]; 0.15% a.i. in paint,4 (Growth covering between 30 and 70% of the inoculated test area)
same,"Surface score of wooden sticks treated with paint formulation, U. atrum",[2]; 0.3% a.i. in paint,3 (Growth covering between 10 and 30% of the inoculated test area)
same,"Surface score of treated mini-boards, 3 week incubation, 1500 ppm","[3]; 1500 ppm, 3 week incubation",0.6
same,"Surface score of treated mini-boards, 6 week incubation, 1500 ppm","[3]; 1500 ppm, 6 week incubation",2.0
same,"Surface score of treated mini-boards, 3 week incubation, 2500 ppm","[3]; 2500 ppm, 3 week incubation",0.4
same,"Surface score of treated mini-boards, 6 week incubation, 2500 ppm","[3]; 2500 ppm, 6 week incubation",2.8
